Experimental data published in patent publication US20040106148A1, “Polypeptides” (priority 2000, published 2004).

Experiments:
[1] = molecular target: T1, mouse TAPP2 C-terminal PH domain (residues 174 to 425), GST fusion (Mus musculus, UniProt Q9ERS5); experiment: Protein-lipid overlay; format: binding; conditions: protein-lipid overlay (FIG. 2)
T1 construct: made in house; host or cells: human embryonic kidney 293 cells (pEBG-2T)
Protocol: FIG. 2. Phosphoinositide binding properties of the novel PH domains. The ability of the indicated GST fusion proteins to bind a variety of phosphoinositides was analysed using a protein-lipid overlay. Serial dilutions of the indicated phosphoinositides (100 pmol, 50 pmol, 25 pmol, 12.5 pmol, 6.3 pmol, 3.1 pmol and 1.6 pmol) were spotted onto a nitrocellulose membranes which were then incubated with the purified GST fusion proteins. The membranes were washed and the GST-fusion proteins bound to the membrane by virtue of their interaction with lipid were detected using a GST antibody. A representative of at least 3 separate experiments carried out is shown.
FIG. 4. Comparison of the phosphoinositide binding properties of the N-terminal and C-terminal PH domains of TAPP1 and TAPP2. The ability of wild type and mutant forms of full length (FL) and isolated N-terminal (NT) and C-terminal (CT) PH domains of TAPP1 and TAPP2 GST-fusion proteins to interact with phosphoinositides were analysed using a protein-lipid overlay. Serial dilutions of the indicated phosphoinositides (100 pmol, 50 pmol, 25 pmol, 12.5 pmol, 6.3 pmol, 3.1 pmol and 1.6 pmol) were spotted onto a nitrocellulose membrane which was then incubated with the indicated purified GST fusion proteins. The membranes were washed and the GST-fusion proteins bound to the membrane by virtue of their interactions with lipid were detected using a GST antibody. A representative experiment of three is shown. The isolated N-terminal PH domain of human TAPP1 comprises residues 1 to 147, the isolated C-terminal PH domain of human TAPP1 comprises residues 95 to 404, the isolated N-terminal PH domain of mouse TAPP2 comprises residues 1 to 131 and the isolated C-terminal PH of mouse TAPP2 comprises residues 174 to 425.
Protein-Lipid overlay. To assess the phosphoinositide binding properties of each PH domain, a protein-lipid overlay assay was performed using the GST fusion proteins as described previously. […] The membrane was blocked in 3% (by mass) fatty acid-free BSA in TBST (50 mM Tris/HCl pH 7.5, 150 mM NaCl and 0.1% Tween-20 (by vol) for lh. The membrane was then incubated overnight at 4° C. with gentle agitation in the same solution containing 0.2 μg/ml of the indicated GST fusion protein. The membranes were washed 6 times over 30 min in TBST and then incubated for 1 h with 1/1000 dilution of anti-GST monoclonal antibody (Sigma). The membranes were washed as before, then incubated for 1 h with 1/5000 dilution of anti-mouse-HRP conjugate (Pierce). Finally, the membranes were washed 12 times over 1 h in TBST and the GST-fusion protein bound to the membrane by virtue of its interaction with phospholipid was detected by enhanced chemiluminescence.

[2] = molecular target: T2, human TAPP1 C-terminal PH domain (CT-PH TAPP1, residues 95 to 404), GST fusion (Homo sapiens, UniProt Q9HB21, T320A); experiment: Surface plasmon resonance (BIACore), GST fusion binding to phosphoinositide in supported lipid monolayer; conditions: supported phosphatidylcholine monolayers, 1:1 binding model, read-out: Apparent Kd
T2 construct: made in house; host or cells: human embryonic kidney 293 cells (pEBG-2T)
T2 sequence (Q9HB21 95-404 T320A): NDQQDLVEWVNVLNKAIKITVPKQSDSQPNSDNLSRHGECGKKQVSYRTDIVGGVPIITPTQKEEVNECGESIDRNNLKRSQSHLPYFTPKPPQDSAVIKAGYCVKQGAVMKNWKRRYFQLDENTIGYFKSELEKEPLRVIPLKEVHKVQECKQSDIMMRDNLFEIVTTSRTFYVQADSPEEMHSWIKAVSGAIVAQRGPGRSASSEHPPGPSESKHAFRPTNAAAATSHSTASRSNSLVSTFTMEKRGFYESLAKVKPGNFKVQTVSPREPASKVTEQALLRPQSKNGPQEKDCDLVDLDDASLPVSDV
From the text: (§1) Cloning of PH domains and preparation of expression constructs. All the human and mouse EST's were obtained from the I.M.A.G.E. Consortium and sequenced. The plant EST (accession number T04439) encoding a full length clone of AtPH1 was obtained from the Arabidopsis Biological Research. Centre (Ohio University). The sequence of each EST was verified and the full length PH domain of each EST was amplified by PCR using the Hi-fidelity PCR system with primers designed to incorporate a Kozak site, an initiating ATG codon followed by a myc epitope tag and a stop codon after the PH domain. […]
(§2) Kinetic analyses of the interactions between the GST PH domain fusions and the polyphosphoinositides were made using surface plasmon resonance based procedures as described previously, with the following modifications. […] Data were analysed using the bimolecular interaction model and the global fitting feature of the BIAevaluation 3 software for several sensorgrams at different protein concentrations. […] The relative binding affinities of each protein relative to the binding of full length GST-TAPP1 to PtdIns(3,4)P2 were also calculated.
We studied the specificity and affinity of interaction of the PH domains for phosphoinositide lipids using either a “protein-lipid overlay” assay (FIG. 2) or the more quantitative surface plasmon resonance based approach (Table 2). […]

[3] = molecular target: T1, mouse TAPP2 C-terminal PH domain (residues 174 to 425), GST fusion; experiment: as above; conditions: read-out: apparent Kd
From the text: as §1, §2

T1 sequence (Q9ERS5 174-425): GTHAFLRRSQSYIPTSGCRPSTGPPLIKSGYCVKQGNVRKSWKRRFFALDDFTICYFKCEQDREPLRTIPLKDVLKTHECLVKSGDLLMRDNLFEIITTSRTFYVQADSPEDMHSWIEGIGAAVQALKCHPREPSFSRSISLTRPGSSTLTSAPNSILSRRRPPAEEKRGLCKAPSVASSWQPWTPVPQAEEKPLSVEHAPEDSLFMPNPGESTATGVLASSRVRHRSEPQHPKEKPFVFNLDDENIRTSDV

CCCCCCCCCCCCCCCC(=O)OC[C@H](COP(=O)(O)O[C@H]1[C@H](O)[C@@H](O)[C@H](OP(=O)(O)O)[C@@H](OP(=O)(O)O)[C@H]1O)OC(=O)CCCCCCCCCCCCCCC [PtdIns(3,4)P2]
phosphoinositide binding [1]: interacted
Kd [2]: 27 nM
Kd [3]: 30 nM
